Data on 4 compounds can be found in the NIST ThermoML archive (doi:10.1021/acs.jced.6b01038).

Structures are written as SMILES. ± gives the expanded uncertainty stated by the source.

A short description of series [1]: refractive index (Na D-line) (dimensionless). The settings on record: 298.15 K; 101.3 kPa; Liquid; Standard Abbe refractometry.
For series [2] the following is noted: 298.15 K; 101.3 kPa; Liquid; Vibrating tube method.

In the case of `CCN(CC)CCO` [(diethylamino)ethanol], the refractive index – broadly, a measure of how strongly the sample bends light – in series [1] came to 1.43833 ± 0.001. Further, the mass density (usually mass per unit of volume) in series [2] is given as 880 ± 5 kg/m3. Take `CNCCCN` [N-methyl-1,3-diaminopropane]: in series [1], the refractive index was 1.44564 ± 0.0012. Further, the mass density in series [2] was 848 ± 5 kg/m3. In the same order, the values of `CN(CCO)CCO` [N-methyldiethanolamine] are 1.4674 ± 0.0011 and 1037 ± 2 kg/m3. Regarding `O` [water], the refractive index in series [1] was 1.33249 ± 0.001.
